Data set [1] has as its target T1, steroid sulphatase (Rattus norvegicus, UniProt P15589).
T1 construct: Livers were obtained from animals administered with 2-MeOE2 or 2-MeOE2bisMATE either orally or intravenously, to assess their effects on steroid sulphatase activity; from tissue; host or cells: liver of female Wistar rats
T1 sequence (P15589 20-577): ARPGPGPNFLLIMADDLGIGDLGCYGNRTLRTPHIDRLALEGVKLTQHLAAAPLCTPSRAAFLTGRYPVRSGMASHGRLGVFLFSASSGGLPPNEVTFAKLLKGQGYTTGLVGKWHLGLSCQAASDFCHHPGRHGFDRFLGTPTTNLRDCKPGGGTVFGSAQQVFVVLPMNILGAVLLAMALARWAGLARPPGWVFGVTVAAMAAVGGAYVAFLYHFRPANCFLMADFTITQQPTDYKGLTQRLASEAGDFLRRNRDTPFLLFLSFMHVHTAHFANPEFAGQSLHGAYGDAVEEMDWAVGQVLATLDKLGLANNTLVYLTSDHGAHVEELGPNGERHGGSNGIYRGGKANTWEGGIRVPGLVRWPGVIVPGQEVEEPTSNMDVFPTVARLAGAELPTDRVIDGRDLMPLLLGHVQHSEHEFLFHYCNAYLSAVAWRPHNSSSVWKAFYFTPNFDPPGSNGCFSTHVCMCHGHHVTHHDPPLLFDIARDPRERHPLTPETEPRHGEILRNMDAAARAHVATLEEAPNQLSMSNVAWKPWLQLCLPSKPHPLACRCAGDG
Details: method as in Purohit et al, 1995. The settings on record: single dose 10 mg kg^−1 oral or intravenous; ref Purohit et al, 1995; cited from earlier work.

For data set [2] the following is noted: in vivo; cited from earlier work.
The nature of data set [3]: Pharmacokinetics and metabolism in rat plasma after a single intravenous or oral dose (HPLC). It is filed as in vivo. How it is done: Female Wistar (155–165 g) rats were purchased from Charles River UK Ltd (Margate, Kent, UK) and housed in a dedicated animal facility. Rats received RM1 rodent maintenance diet (SDS, Kent, UK), water ad libitum, and were maintained in positive pressure isolators under a 12 h light–dark cycle. These experiments were carried out under conditions that complied with institutional requirements. Rats received 2-MeOE2 or 2-MeOE2bisMATE (10 mg kg^−1, oral or intravenous), with control animals receiving vehicle only (propylene glycol: THF, 9 : 1 v v^−1). There were two reasons for selecting 10 mg kg^−1 for both oral and intravenous dosing. […] Rats were subjected to terminal anaesthesia (Halothane) and blood removed by cardiac puncture at 5, 15 and 30 min and 1, 3, 8 and 24 h after intravenous administration, and 15 and 30 min and 1, 3, 8, 24 and 48h following oral administration of 2-MeOE2 or 2-MeOE2bisMATE. Plasma was prepared from whole blood by centrifugation (2800 g, 4°C, 15 min). Plasma (0.5 ml) was extracted with diethyl ether (4 ml) and frozen in a methanol : solid carbon dioxide mixture. 17α-Epitestosterone (28 μg ml^−1) was used as an internal standard after purification by HPLC. The organic phase was decanted to a fresh tube and evaporated to dryness under a stream of air at room temperature. The extraction efficiencies for 2-MeOE2 and 2-MeOE2bisMATE from plasma were 71±5 and 75±4% (n=6), respectively. The residues were stored at −20°C until analysis by HPLC.
2-MeOE2bisMATE was separated from its putative metabolites, 2-MeOE2, 2-MeOE2-3MATE and 2-MeOE2-17MATE, using a modified version of a reversed-phase HPLC method described previously ([Hildago Aragones et al, 1996]). An Agilent 1100 (Cheshire, UK) autosampler, photodiode array detector and solvent delivery system were used. The agents were separated from endogenous plasma components by an isocratic mobile phase consisting of 58% methanol in 0.02 M ammonium sulphate. Sodium azide (1 mM) was added to the mobile phase in order to decrease microbial growth. Extracted samples were reconstituted in mobile phase and aliquots of 100 μl were injected on to a C3-phenyl column (250 × 5 mm, 5 μm) purchased from Phenomenex (Cheshire, UK). 2-Methoxyoestradiol-bis-sulphamate, 2-MeOE2 and their metabolites were analysed with a photodiode array detector with detection at 285 nm. The method was validated by spiking plasma with 2-MeOE2bisMATE (960 ng ml^−1). The inter-day and intra-day coefficients of variation were 8.2% (n=6) and 3.8% (n=6), respectively. Quantification was achieved by spiking plasma with 2-MeOE2bisMATE and the internal standard 17α-epitestosterone, extraction with diethyl ether and subsequent analysis by HPLC. […] The limits of detection (LODs) and quantification of 2-MeOE2bisMATE in plasma were 11 and 40 ng ml^−1, respectively.
Pharmacokinetic parameters were calculated using WinNonlin software (Pharsight Corporation, Mountview, CA, USA). The area under the curve (AUC) was calculated using the linear trapezoidal method, with extrapolation of the terminal phase to infinity. Other parameters calculated were: distribution and elimination rate constants (α and β); total body clearance (Cl)=dose/AUC; volume of distribution (Vd)=Cl/β; distribution half-life (t1/2α)=0.693/α; elimination half-life (t1/2β)=0.693/β; bioavailability (% F=(AUCoral/AUCi.v) × 100).

The target of data set [4] is T1, steroid sulphatase. In words: Liver oestrone sulphatase activity after in vivo dosing. The protocol: Livers were obtained from animals administered with 2-MeOE2 or 2-MeOE2bisMATE either orally or intravenously, to assess their effects on steroid sulphatase activity. Steroid sulphatase activity was measured as described previously ([Purohit et al, 1995]).
Data set [5] concerns MDA-MB-435 (ER−) human melanoma cells xenografts. In words: In vivo inhibition of tumour growth, MDA-MB-435 xenografts in nude mice. Details: species or system mouse. The note with it: 20 mg kg^−1 oral daily for 28 days; for effect on tumour growth / tumour volumes versus control: treatment and post-dosing periods. The protocol: (§1) To compare the anticancer effects of 2-MeOE2 and 2-MeOE2bisMATE, xenografts derived from MDA-MB-435 (ER−) human melanoma cells were transplanted into female nude mice with eight mice per group. These studies were carried out by Anti-Cancer Inc. (San Diego, CA, USA). Treatment was initiated when tumour volumes reached 100–200 mm^3. Drugs were dissolved in a minimum volume of THF, diluted with propylene glycol and administered at 20 mg kg^−1, oral, daily for 28 days. The length (l) and width (w) of tumours was measured at weekly intervals, from which the tumour volumes were calculated using the formula (l × w^2/2). Monitoring of tumour volumes continued for a further 28-day period after the end of drug administration. The body masses of control and treated animals were also measured at weekly intervals as an indicator of any toxicity that might be associated with the use of these drugs.
Student's t-test was used to assess the significance of differences in tumour volumes between control and treated animals.

For data set [6], the system named is human umbilical vein endothelial cell (HUVEC). Also on record: method as in Newman et al, 2004. The settings on record: in vitro; ref Newman et al, 2004; cited from earlier work.
Data set [7] in a line: Body masses of xenograft-bearing mice as an indicator of toxicity. It is filed as in vivo, mouse. The settings on record: nude mice, 20 mg kg^−1 oral daily for 28 days. The protocol:
as §1

The mark [8] stands for this setting: female, Wistar, in vivo, iv, 10 mg/kg.
Setting [9] is: female, Wistar, in vivo, po, 10 mg/kg.

Entries after “also recorded” stand apart in the source; their conditions may differ. Where two headings read alike, the source gives them in different places. A value given as a limit tells only on which side of the number the result lay.

The bioavailability is the share of a dose that reaches the circulation, judged against a reference dose that is usually intravenous. By AUC is commonly meant concentration integrated over time. Read a low AUC as low exposure. By Cmax is commonly meant the maximum level reached in the sampled fluid or tissue. For orientation: half-life means the time in which the quantity being followed falls by half. Broadly, the inhibition is the share of the control response that was lost under treatment.

As for `C[C@]12CC[C@@H]3c4ccc(OS(N)(=O)=O)cc4CC[C@H]3[C@@H]1CCC2=O` [EMATE, oestrone-3-O-sulphamate], the “inhibition of rat liver sulphatase” value on steroid sulphatase [1] was “at least 99%”. Also, in data set [2], the half-life in plasma is 4.5 h.
With `COc1cc2c(cc1OS(N)(=O)=O)CCC1C2CC[C@]2(C)C(OS(N)(=O)=O)CCC12` (stereo partly drawn) [2-MeOE2bisMATE, 2-methoxyoestradiol-bis-sulphamate], the plasma concentrations detected result in data set [3] (female, Wistar, in vivo) was “up to 5 μM”. For the same compound, the bioavailability in data set [3] (female, Wistar, in vivo, 10 mg/kg, % F (bioavailability)) amounted to 85%. The AUC in data set [3] (setting [8]) worked out at 514 ± 154 µg·h/mL; in data set [3] (setting [9]), 389 ± 28.8 µg·h/mL. The values for the Cmax in data set [3] (setting [8]) and in data set [3] (setting [9]) were 6550 ± 920 ng/mL and 3900 ± 250 ng/mL, respectively. Moreover, the Vd in data set [3] (setting [8]) is 0.28 ± 0.09 L; in data set [3] (setting [9]) it was 0.35 ± 0.02 L. In addition, the clearance in data set [3] (setting [8]) is 0.833 mL/min. The half-life in data set [3] (female, Wistar, in vivo, iv, 10 mg/kg, t1/2α (distribution half-life)) is 0.22 ± 0.1 h; in data set [3] (female, Wistar, in vivo, iv, 10 mg/kg, t1/2β (terminal half-life)), 8.5 ± 1.16 h; in data set [3] (female, Wistar, in vivo, po, 10 mg/kg, t1/2β (terminal plasma half-life)), 6.51 ± 1.09 h. Moreover, the “time for which compound was detectable in plasma” value in data set [3] (female, Wistar, in vivo, po) was “at least 24 h”. Moreover, in data set [3] (setting [9]), the Cl turned out to be 0.036 ± 0.001 L/h. Further, the plasma concentration in data set [3] (female, Wistar, in vivo, po, 24 h) was 450 ng/mL. For the same compound, the “time for which inhibition of sulphatase activity was maintained” value at steroid sulphatase [4] (rat liver, after single dose) turned out to be 48 h. Also, the “inhibition of steroid sulphatase activity” value was > 99% on steroid sulphatase [4] (rat liver, within 5 min of intravenous dosing) and > 99% against steroid sulphatase [4] (rat liver, within 15 min of oral dosing). The inhibition at 10 mg/kg at steroid sulphatase [4] (rat, read-out: inhibition of hepatic sulphatase activity compared with control animals) came out at 99.5 ± 0.5%. The “effect on tumour growth / tumour volumes versus control” value in data set [5] is listed as “almost completely inhibited tumour growth; also recorded: significantly smaller”. Further, the “mean tumour volume as % of tumour volume in control animals” value in data set [5] (at 4 weeks, end of dosing) worked out at 14%. Also, the “difference in tumour volumes versus control group” value in data set [5] (maintained for a further 4 weeks after cessation) is on record as 86%. In data set [6], the “potency relative to 2-MeOE2 in HUVEC growth inhibition” value is 60 fold.
Consider `COc1cc2c(cc1O)CC[C@@H]1[C@@H]2CC[C@]2(C)[C@@H](O)CC[C@@H]12` [2-MeOE2, 2-Methoxyoestradiol], for which, in data set [3] (10 mg kg^−1, (AUCoral/AUCi.v) × 100), the “% F (bioavailability)” value is recorded as “very low”. In addition, the plasma concentration entry in data set [3] (1 h after 10 mg kg^−1 intravenous bolus, LOD 11 ng ml^−1) is “below the LOD”. Further, the “level in plasma as putative metabolite of 2-MeOE2bisMATE” value in data set [3] (after oral or intravenous 2-MeOE2bisMATE 10 mg kg^−1) was “not above the LOD”. Also, the concentration at 1 h in data set [3] (female, Wistar, plasma, iv, 10 mg kg^−1, rat, 1 h after 10 mg kg^−1 intravenous bolus, LOD 11 ng ml^−1) was < 11 ng/mL. Besides, the half-life in data set [3] (female, Wistar, plasma, iv, 10 mg kg^−1, rat, after intravenous administration, read-out: half-life in plasma) was ~0.233 h. For the same compound, on steroid sulphatase [4] (rat liver, single oral or intravenous dose 10 mg kg^−1), the “inhibition of hepatic sulphatase activity compared with control animals” value is given as “did not affect”. The “effect on tumour growth / tumour volumes versus control” value in data set [5] is on record as “did not inhibit tumour growth; also recorded: no significant effect”. Besides, in data set [7], the body weights entry is “No decreases”.

The values are drawn from article PMC2410173, “Pharmacokinetics and efficacy of 2-methoxyoestradiol and 2-methoxyoestradiol-bis-sulphamate in vivo in rodents” (British Journal of Cancer, 2004).
